How the values were obtained:
[1] = test system: tumor endothelial cells (CT26.CL25 colon cancer tumor); assay: Colon CT26 ex vivo model of tumor angiogenesis; format: cell-based; details: Mus musculus, CT26, 48 h, read-out: Cell death
Description: This example describes a procedure to prepare a primary tumor angiogenesis model for assessing the efficacy of anti-cancer candidate agents.
1. The day before the experiment, spray all necessary tools with 70% ethanol and sterilize them under UV light overnight, including blade, dissecting and micro-dissecting scissors and […]. Place 24-well dishes at 4° C. to pre-chill plates and thaw Matrigel 24 hours before tumor dissection.
2. Spray 70% ethanol on working bench. Prepare two sterile petri dishes with 10 mL sterile PBS. Steps 3 and 4 are for mouse tumor models. For fresh human tumor, directly go to step 5.
3. Euthanize the tumor-bearing mice. Spray 70% ethanol on the mouse and remove the tumor using sterilized dissecting tools (avoid the fur). Rinse the tumor in petri dish with sterile PBS to remove ethanol and fur. Transfer the tumor to a new petri dish with PBS for dissection. Place the dish on ice.
4. Using pre-chilled sterile pipet tips to seed regular Matrigel in 24 well plates on ice. Matrigel (30 μL) is dropped in the middle of each well without touching the edge of the well (avoid introducing bubbles if possible).
5. Cut the tumor in halves using the sterile blade. Identify and isolate healthy tumor tissue that is not necrotic and is within the tumor capsule. Cut the healthy tumor tissue into small pieces. For instance, a suitable size for the tumor tissue is 0.5 mm (H)×0.5 mm (L)×0.3 mm (D) with a total volume of 0.075 mm^3.
6. Gently transfer and embed each tumor piece in the Matrigel drop in the 24-well plate. Place the embedded piece in the bottom and middle of each Matrigel drop. Keep the plate on ice all the time.
7. After seeding the tumor pieces, plates are incubated in a 37° C. cell culture incubator without medium for 10 minutes in order for the Matrigel to solidify.
8. Endothelial Growth Medium (0.5 mL) is added to each well and incubated at 37° C. with 5% CO2. Wait until the new endothelial cells have grown out of the tumor or are larger than 3 mm in diameter until treatment. This usually takes 4 days for the LL2 Lewis lung cancer model and 7 days for the CT26 colon cancer model. For human tumor models, the growth time is typically 2-3 weeks, depending on the tumor type. Media is changed every 4 days during prolonged culture. Typically, when the tumor tissue grows to 2 mm in diameter, it is good for drug testing. A size of about 3 mm in diameter can make visualization easier.
9. When the assay is ready to be analyzed for cell death (e.g., 48 hours after drug addition), prepare the dye mixture by mixing 6 μL of green dye to stain live cells (5 mg/mL Fluorescein diacetate or FDA in DMSO) with 30 μL of red dye (2.5 mg/mL Propidium iodide or PI in PBS) to stain dead cells in an Eppendorf tube. The FDA dye needs to be stored frozen in a −20° C. freezer because it has a labile ester bond.
10. Add 1 μL of the dye mixture to each well of the 24-well dish. It is usually performed one 24-well dish at a time given the amount of time needed to take pictures (the green dye is not as stable in the cells in the long term).
11. Gently rock the dish a few times to mix the dye with the media in the wells and incubate the dish at 37° C. for 10 min (too long incubation can make the green signal too intense).
12. Wash each well with 0.5 mL of sterile PBS and then add 0.5 mL of phenol red free SFM to each well. Alternatively 0.5 mL of regular Endothelial Cell Growth Media can be added to each well if this well needs to be continuously maintained after the experiment.
13. Look through all wells on an inverted microscope using the 2× objective lens to observe morphological changes.
14. Taking pictures in the red and green channels would allow not only the recording of the result but also more accurate quantitation of the result. To take pictures for all the wells, first pick a well that has robust red and green signals. […]

[2] = test system: tumor endothelial cells (LL/2 lung cancer tumor); assay: Lung LL2 ex vivo model of tumor angiogenesis; format: cell-based, mouse; details: for cytotoxicity at 40 µM / cytotoxicity at 20 µM: Mus musculus, Endothelial cell, 48 h, read-out: Cell death; for Cell death: Lung LL2 ex vivo, Conc. 40 μm, drug treatment two days
How it was run: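 Mouse LL2 tumor fragments (~0.5×0.5×0.3 mm) embedded in Matrigel and grown in endothelial growth medium at 37° C until endothelial outgrowth (about 4 days) before drug treatment. About 48 h after drug addition, stained 10 min with fluorescein diacetate/propidium iodide; live (green) and dead (red) cells imaged at 2× with fixed channel settings.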

COc1ccc(S(=O)(=O)c2cnc3ccc([N+](=O)[O-])cc3c2NN2CCN(C)CC2)cc1 [compound 94, 3-((4-methoxyphenyl)sulfonyl)-N-(4-methylpiperazin-1-yl)-6-nitroquinolin-4-amine]
cytotoxicity at 40 µM [1]: 0% | cytotoxicity at 40 µM [2]: 20%

CCCCCCCOc1ccc(S(=O)(=O)c2cnc3ccc([S+](C)[O-])cc3c2N2CCC(N3CCCC(O)C3)CC2)cc1 (stereo not drawn) [compound 254, 1′-(3-((4-(heptyloxy)phenyl)sulfonyl)-6-(methylsulfinyl)quinolin-4-yl)-[1,4′-bipiperidin]-3-ol]
cytotoxicity at 10 µM [1]: 40% | cytotoxicity at 20 µM [2]: 100%

CCCCOc1ccc(S(=O)(=O)c2cnc3ccc(C(=O)OCC)cc3c2N2CCC(N3CCC(O)CC3)CC2)cc1 [compound 161, ethyl 3-((4-butoxyphenyl)sulfonyl)-4-(4-hydroxy-[1,4′-bipiperidin]-1′-yl)quinoline-6-carboxylate]
cytotoxicity at 40 µM [1]: 100% | cytotoxicity at 40 µM [2]: 90%

COc1ccc(S(=O)(=O)c2cnc3cc(OC)c(OC)cc3c2-n2cncn2)cc1OC [compound 96, 3-((3,4-dimethoxyphenyl)sulfonyl)-6,7-dimethoxy-4-(1H-1,2,4-triazol-1-yl)quinoline]
cytotoxicity at 10 µM [1]: 0% | cytotoxicity at 20 µM [2]: 0%

COc1ccc(S(=O)(=O)c2cnc3ccc(OC(F)(F)F)cc3c2N(CCO)CCO)cc1OC [compound 72, 2,2′-((3-((3,4-dimethoxyphenyl)sulfonyl)-6-(trifluoromethoxy)quinolin-4-yl)azanediyl)bis(ethan-1-ol)]
cytotoxicity at 40 µM [1]: 0% | cytotoxicity at 40 µM [2]: 20%

COc1ccc(S(=O)(=O)c2cnc3ccc(OC(F)(F)F)cc3c2N2CCC(N3CCCCC3)CC2)cc1 [compound 43, 4-([1,4′-bipiperidin]-1′-yl)-3-((4-methoxyphenyl)sulfonyl)-6-(trifluoromethoxy)quinoline]
cytotoxicity at 40 µM [1]: 90% | cytotoxicity at 40 µM [2]: 100%

O=[N+]([O-])c1ccc(S(=O)(=O)c2cnc3ccc(OC(F)(F)F)cc3c2N2CCC(O)CC2)cc1 [compound 61, 1-(3-((4-nitrophenyl)sulfonyl)-6-(trifluoromethoxy)quinolin-4-yl)piperidin-4-ol]
cytotoxicity at 40 µM [1]: 20% | cytotoxicity at 40 µM [2]: 50%

CCN(CC)c1c(S(=O)(=O)c2ccc(OC)c(OC)c2)cnc2ccc(OC(F)(F)F)cc12 [compound 68, 3-((3,4-dimethoxyphenyl)sulfonyl)-N,N-diethyl-6-(trifluoromethoxy)quinolin-4-amine]
cytotoxicity at 40 µM [1]: 50% | cytotoxicity at 40 µM [2]: 80%

CCc1ccc(S(=O)(=O)c2cnc3ccc(OC)cc3c2-n2cncn2)cc1 [compound 79, 3-((4-ethylphenyl)sulfonyl)-6-methoxy-4-(1H-1,2,4-triazol-1-yl)quinoline]
cytotoxicity at 10 µM [1]: 100% | cytotoxicity at 20 µM [2]: 20%

CCCCOc1ccc(S(=O)(=O)c2cnc3ccc(C(=O)OCC)cc3c2N2CCSCC2)cc1 [compound 191, ethyl 3-((4-butoxyphenyl)sulfonyl)-4-thiomorpholinoquinoline-6-carboxylate]
cytotoxicity at 40 µM [1]: 10% | cytotoxicity at 40 µM [2]: 30%

CCCCOc1ccc(S(=O)(=O)c2cnc3ccc([S+](C)[O-])cc3c2N2CCC(N3CCC(O)(c4ccccc4)CC3)CC2)cc1 (stereo not drawn) [compound 238, 1′-(3-((4-butoxyphenyl)sulfonyl)-6-(methylsulfinyl)quinolin-4-yl)-4-phenyl-[1,4′-bipiperidin]-4-ol]
cytotoxicity at 10 µM [1]: 10% | cytotoxicity at 40 µM [2]: 100%

CCCCCCCOc1ccc(S(=O)(=O)c2cnc3ccc(SC)cc3c2N2CCCN(C)CC2)cc1 [compound 218, 3-((4-(heptyloxy)phenyl)sulfonyl)-4-(4-methyl-1,4-diazepan-1-yl)-6-(methylthio)quinoline]
cytotoxicity at 40 µM [1]: 90% | cytotoxicity at 40 µM [2]: 100%

CCCCCCCOc1ccc(S(=O)(=O)c2cnc3ccc([S+](C)[O-])cc3c2N2CCN(C)CC2)cc1 (stereo not drawn) [compound 259, 3-((4-(heptyloxy)phenyl)sulfonyl)-4-(4-methylpiperazin-1-yl)-6-(methylsulfinyl)quinoline]
cytotoxicity at 20 µM [1]: 100% | cytotoxicity at 20 µM [2]: 95%

CCc1ccc(S(=O)(=O)c2cnc3ccc(OC(F)(F)F)cc3c2N2CCCN(CCN(CC)CC)CC2)cc1 [compound 100, N,N-diethyl-2-(4-(3-((4-ethylphenyl)sulfonyl)-6-(trifluoromethoxy)quinolin-4-yl)-1,4-diazepan-1-yl)ethan-1-amine]
cytotoxicity at 40 µM [1]: 100% | cytotoxicity at 40 µM [2]: 100%

COc1ccc(S(=O)(=O)c2cnc3ccc(CC#N)cc3c2-n2cncn2)cc1 [compound 98, 2-(3-((4-methoxyphenyl)sulfonyl)-4-(1H-1,2,4-triazol-1-yl)quinolin-6-yl)acetonitrile]
cytotoxicity at 10 µM [1]: 50% | cytotoxicity at 20 µM [2]: 10%

CCc1ccc(S(=O)(=O)c2cnc3ccc(OC(F)(F)F)cc3c2NN2CCN(C)CC2)cc1 [compound 50, 3-((4-ethylphenyl)sulfonyl)-N-(4-methylpiperazin-1-yl)-6-(trifluoromethoxy)quinolin-4-amine]
cytotoxicity at 40 µM [1]: 100% | cytotoxicity at 40 µM [2]: 90%

CCCCCCCOc1ccc(S(=O)(=O)c2cnc3ccc(SC)cc3c2N2CCC(N3CCCCC3)CC2)cc1 [compound 219, 4-([1,4′-bipiperidin]-1′-yl)-3-((4-(heptyloxy)phenyl)sulfonyl)-6-(methylthio)quinoline]
cytotoxicity at 40 µM [1]: 90% | cytotoxicity at 40 µM [2]: 60%

CCCCN(CCCC)c1c(S(=O)(=O)c2ccc(OC)cc2)cnc2ccc(C(=O)OCC)cc12 [compound 155, ethyl 4-(dibutylamino)-3-((4-methoxyphenyl)sulfonyl)quinoline-6-carboxylate]
cytotoxicity at 40 µM [1]: 20% | Cell death [2]: 80%

COc1ccc(S(=O)(=O)c2cnc3ccc(OC(F)(F)F)cc3c2NN2CCN(C)CC2)cc1OC [compound 88, 3-((3,4-dimethoxyphenyl)sulfonyl)-N-(4-methylpiperazin-1-yl)-6-(trifluoromethoxy)quinolin-4-amine]
cytotoxicity at 40 µM [1]: 60% | cytotoxicity at 40 µM [2]: 70%

CCCCCCCOc1ccc(S(=O)(=O)c2cnc3ccc([S+](C)[O-])cc3c2N2CCC(N3CCCCC3)CC2)cc1 (stereo not drawn) [compound 221, 4-([1,4′-bipiperidin]-1′-yl)-3-((4-(heptyloxy)phenyl)sulfonyl)-6-(methylsulfinyl)quinoline]
cytotoxicity at 40 µM [1]: 100% | cytotoxicity at 40 µM [2]: 100%

COc1ccc(S(=O)(=O)c2cnc3ccc(OC(F)(F)F)cc3c2N2CCCN(C)CC2)cc1OC [compound 57, 3-((3,4-dimethoxyphenyl)sulfonyl)-4-(4-methyl-1,4-diazepan-1-yl)-6-(trifluoromethoxy)quinoline]
cytotoxicity at 40 µM [1]: 60% | cytotoxicity at 40 µM [2]: 40%

CCCCOc1ccc(S(=O)(=O)c2cnc3ccc(C(=O)NCCO)cc3c2N2CCC(N3CCCCC3)CC2)cc1 [compound 202, 4-([1,4′-bipiperidin]-1′-yl)-3-((4-butoxyphenyl)sulfonyl)-N-(2-hydroxyethyl)quinoline-6-carboxamide]
cytotoxicity at 40 µM [1]: 10% | Cell death [2]: 30%

CCCCOc1ccc(S(=O)(=O)c2cnc3ccc(OC(F)(F)F)cc3c2N2CCCN(C)CC2)cc1 [compound 151, 3-((4-butoxyphenyl)sulfonyl)-4-(4-methyl-1,4-diazepan-1-yl)-6-(trifluoromethoxy)quinoline]
cytotoxicity at 40 µM [1]: 100% | cytotoxicity at 40 µM [2]: 100%

CCc1ccc(S(=O)(=O)c2cnc3ccc([N+](=O)[O-])cc3c2N2CCC(N3CCCCC3)CC2)cc1 [compound 77, 4-([1,4′-bipiperidin]-1′-yl)-3-((4-ethylphenyl)sulfonyl)-6-nitroquinoline]
cytotoxicity at 40 µM [1]: 40% | cytotoxicity at 40 µM [2]: 80%

From patent publication US11884647B2, “Compounds and methods for targeting pathogenic blood vessels” (THE REGENTS OF THE UNIVERSITY OF CALIFORNIA, priority 2019, dated 2024)
